Test results reported in patent US12215140B2, “Method of stabilizing protein contained in specimen and solution for stabilizing protein contained in specimen” (EIKEN KAGAKU KABUSHIKI KAISHA, priority 2018, dated 2025).

System: hemoglobin-haptoglobin complex
Assay: Stability of hemoglobin (as hemoglobin-haptoglobin complex) in samples preserved at 37° C. in preservation solution containing 1 unit/L haptoglobin, Hb measured by latex agglutination method (Examples 1 to 7)
Design: species or system human
Details: for Hb concentration / Recovery ratio with respect to Hb concentration after 0 days: 37° C.
Procedure, shortened: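 Hemoglobin (~300 µg/L) in 0.5% fecal suspension, or without feces, held at 37 °C for 0–21 days in 40 mmol/L HEPES pH 6.8, 0.1% BSA, 0.1% NaN3, 1 unit/L haptoglobin, with 0–100 mmol/L phenylboronic acid ± sugars. Hb quantified by latex agglutination with anti-human Hb rabbit polyclonal; recovery (%) relative to day 0.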

[1] = Feces 1, sugar 50 mmol/L + phenylboronic acid 15 mmol/L, 0 days
[2] = Feces 1, sugar 50 mmol/L + phenylboronic acid 15 mmol/L, 7 days
[3] = Feces 1, sugar 50 mmol/L + phenylboronic acid 15 mmol/L, 14 days
[4] = Feces 1, sugar 50 mmol/L + phenylboronic acid 15 mmol/L, 21 days
[5] = Feces 1, sugar 100 mmol/L + phenylboronic acid 15 mmol/L, 0 days
[6] = Feces 1, sugar 100 mmol/L + phenylboronic acid 15 mmol/L, 7 days
[7] = Feces 1, sugar 100 mmol/L + phenylboronic acid 15 mmol/L, 14 days
[8] = Feces 1, sugar 100 mmol/L + phenylboronic acid 15 mmol/L, 21 days
[9] = Feces 1, sugar 100 mmol/L, no phenylboronic acid, 0 days
[10] = Feces 1, sugar 100 mmol/L, no phenylboronic acid, 7 days
[11] = Feces 1, sugar 100 mmol/L, no phenylboronic acid, 14 days
[12] = Feces 1, sugar 100 mmol/L, no phenylboronic acid, 21 days
[13] = Feces 2, sugar 50 mmol/L + phenylboronic acid 15 mmol/L, 0 days
[14] = Feces 2, sugar 50 mmol/L + phenylboronic acid 15 mmol/L, 7 days
[15] = Feces 2, sugar 50 mmol/L + phenylboronic acid 15 mmol/L, 14 days
[16] = Feces 2, sugar 50 mmol/L + phenylboronic acid 15 mmol/L, 21 days
[17] = Feces 2, sugar 100 mmol/L + phenylboronic acid 15 mmol/L, 0 days
[18] = Feces 2, sugar 100 mmol/L + phenylboronic acid 15 mmol/L, 7 days
[19] = Feces 2, sugar 100 mmol/L + phenylboronic acid 15 mmol/L, 14 days
[20] = Feces 2, sugar 100 mmol/L + phenylboronic acid 15 mmol/L, 21 days
[21] = Feces 2, sugar 100 mmol/L, no phenylboronic acid, 0 days
[22] = Feces 2, sugar 100 mmol/L, no phenylboronic acid, 7 days
[23] = Feces 2, sugar 100 mmol/L, no phenylboronic acid, 14 days
[24] = Feces 2, sugar 100 mmol/L, no phenylboronic acid, 21 days
[25] = Feces 3, sugar 50 mmol/L + phenylboronic acid 15 mmol/L, 0 days
[26] = Feces 3, sugar 50 mmol/L + phenylboronic acid 15 mmol/L, 7 days
[27] = Feces 3, sugar 50 mmol/L + phenylboronic acid 15 mmol/L, 14 days
[28] = Feces 3, sugar 50 mmol/L + phenylboronic acid 15 mmol/L, 21 days
[29] = Feces 3, sugar 100 mmol/L + phenylboronic acid 15 mmol/L, 0 days
[30] = Feces 3, sugar 100 mmol/L + phenylboronic acid 15 mmol/L, 7 days
[31] = Feces 3, sugar 100 mmol/L + phenylboronic acid 15 mmol/L, 14 days
[32] = Feces 3, sugar 100 mmol/L + phenylboronic acid 15 mmol/L, 21 days
[33] = Feces 3, sugar 100 mmol/L, no phenylboronic acid, 0 days
[34] = Feces 3, sugar 100 mmol/L, no phenylboronic acid, 7 days
[35] = Feces 3, sugar 100 mmol/L, no phenylboronic acid, 14 days
[36] = Feces 3, sugar 100 mmol/L, no phenylboronic acid, 21 days
[37] = No feces, sugar 50 mmol/L + phenylboronic acid 15 mmol/L, 0 days
[38] = No feces, sugar 50 mmol/L + phenylboronic acid 15 mmol/L, 7 days
[39] = No feces, sugar 50 mmol/L + phenylboronic acid 15 mmol/L, 14 days
[40] = No feces, sugar 50 mmol/L + phenylboronic acid 15 mmol/L, 21 days
[41] = No feces, sugar 100 mmol/L + phenylboronic acid 15 mmol/L, 0 days
[42] = No feces, sugar 100 mmol/L + phenylboronic acid 15 mmol/L, 7 days
[43] = No feces, sugar 100 mmol/L + phenylboronic acid 15 mmol/L, 14 days
[44] = No feces, sugar 100 mmol/L + phenylboronic acid 15 mmol/L, 21 days
[45] = No feces, sugar 100 mmol/L, no phenylboronic acid, 0 days
[46] = No feces, sugar 100 mmol/L, no phenylboronic acid, 7 days
[47] = No feces, sugar 100 mmol/L, no phenylboronic acid, 14 days
[48] = No feces, sugar 100 mmol/L, no phenylboronic acid, 21 days

`OC[C@H]1O[C@H](O[C@H]2O[C@H](CO)[C@@H](O)[C@H](O)[C@H]2O)[C@H](O)[C@@H](O)[C@@H]1O` [Trehalose, trehalose] was tested, and the Hb concentration [1] was 299 µg/L, the “Recovery ratio with respect to Hb concentration after 0 days” value (“Recovery ratio … after 0 days” below) [1] was 100% and the Hb concentration [2] was 261 µg/L. For the same compound, the “Recovery ratio … after 0 days” value [2] was 87%, the Hb concentration [3] was 247 µg/L and the “Recovery ratio … after 0 days” value [3] was 83%. For the same compound, the Hb concentration [4] was 241 µg/L, the “Recovery ratio … after 0 days” value [4] was 81% and the Hb concentration [5] was 291 µg/L. The “Recovery ratio … after 0 days” value [5] was 100%, the Hb concentration [6] was 249 µg/L and the “Recovery ratio … after 0 days” value [6] was 86%. For the same compound, the Hb concentration [7] was 238 µg/L, the “Recovery ratio … after 0 days” value [7] was 82% and the Hb concentration [8] was 230 µg/L. For the same compound, the “Recovery ratio … after 0 days” value [8] was 79%, the Hb concentration [9] was 266 µg/L and the “Recovery ratio … after 0 days” value [9] was 100%. The Hb concentration [10] was 121 µg/L, the “Recovery ratio … after 0 days” value [10] was 45% and the Hb concentration [11] was 80 µg/L. The “Recovery ratio … after 0 days” value [11] was 30%, the Hb concentration [12] was 44 µg/L and the “Recovery ratio … after 0 days” value [12] was 17%. For the same compound, the Hb concentration [13] was 284 µg/L, the “Recovery ratio … after 0 days” value [13] was 100% and the Hb concentration [14] was 257 µg/L. The “Recovery ratio … after 0 days” value [14] was 90%, the Hb concentration [15] was 223 µg/L and the “Recovery ratio … after 0 days” value [15] was 79%. The Hb concentration [16] was 201 µg/L, the “Recovery ratio … after 0 days” value [16] was 71% and the Hb concentration [17] was 269 µg/L. The “Recovery ratio … after 0 days” value [17] was 100%, the Hb concentration [18] was 251 µg/L and the “Recovery ratio … after 0 days” value [18] was 93%. For the same compound, the Hb concentration [19] was 227 µg/L, the “Recovery ratio … after 0 days” value [19] was 84% and the Hb concentration [20] was 206 µg/L. The “Recovery ratio … after 0 days” value [20] was 77%, the Hb concentration [21] was 264 µg/L and the “Recovery ratio … after 0 days” value [21] was 100%. For the same compound, the Hb concentration [22] was 106 µg/L, the “Recovery ratio … after 0 days” value [22] was 40% and the Hb concentration [23] was 61 µg/L. The “Recovery ratio … after 0 days” value [23] was 23%, the Hb concentration [24] was 41 µg/L and the “Recovery ratio … after 0 days” value [24] was 16%. The Hb concentration [25] was 282 µg/L, the “Recovery ratio … after 0 days” value [25] was 100% and the Hb concentration [26] was 221 µg/L. For the same compound, the “Recovery ratio … after 0 days” value [26] was 78%, the Hb concentration [27] was 197 µg/L and the “Recovery ratio … after 0 days” value [27] was 70%. The Hb concentration [28] was 178 µg/L, the “Recovery ratio … after 0 days” value [28] was 63% and the Hb concentration [29] was 281 µg/L. For the same compound, the “Recovery ratio … after 0 days” value [29] was 100%, the Hb concentration [30] was 213 µg/L and the “Recovery ratio … after 0 days” value [30] was 76%. The Hb concentration [31] was 192 µg/L, the “Recovery ratio … after 0 days” value [31] was 68% and the Hb concentration [32] was 179 µg/L. The “Recovery ratio … after 0 days” value [32] was 64%, the Hb concentration [33] was 267 µg/L and the “Recovery ratio … after 0 days” value [33] was 100%. For the same compound, the Hb concentration [34] was 91 µg/L, the “Recovery ratio … after 0 days” value [34] was 34% and the Hb concentration [35] was 56 µg/L. For the same compound, the “Recovery ratio … after 0 days” value [35] was 21%, the Hb concentration [36] was 47 µg/L and the “Recovery ratio … after 0 days” value [36] was 18%. The Hb concentration [37] was 268 µg/L, the “Recovery ratio … after 0 days” value [37] was 100% and the Hb concentration [38] was 253 µg/L. For the same compound, the “Recovery ratio … after 0 days” value [38] was 94%, the Hb concentration [39] was 255 µg/L and the “Recovery ratio … after 0 days” value [39] was 95%. For the same compound, the Hb concentration [40] was 257 µg/L, the “Recovery ratio … after 0 days” value [40] was 96% and the Hb concentration [41] was 269 µg/L. For the same compound, the “Recovery ratio … after 0 days” value [41] was 100%, the Hb concentration [42] was 248 µg/L and the “Recovery ratio … after 0 days” value [42] was 92%. For the same compound, the Hb concentration [43] was 251 µg/L, the “Recovery ratio … after 0 days” value [43] was 93% and the Hb concentration [44] was 251 µg/L. The “Recovery ratio … after 0 days” value [44] was 93%, the Hb concentration [45] was 243 µg/L and the “Recovery ratio … after 0 days” value [45] was 100%. For the same compound, the Hb concentration [46] was 229 µg/L, the “Recovery ratio … after 0 days” value [46] was 94% and the Hb concentration [47] was 225 µg/L. For the same compound, the “Recovery ratio … after 0 days” value [47] was 93%, the Hb concentration [48] was 222 µg/L and the “Recovery ratio … after 0 days” value [48] was 91%. For the same compound, the “recovery ratio of hemoglobin in the samples containing fecal specimens” value (sugar 100 mmol/L, preservation solutions containing no phenylboronic acid) was “does not improve” and the recovery ratios (sugar further added to phenylboronic acid 15 mmol/L, Feces 3) was “not improved”.
